One block for each molecule: values may come before it.
Legend:
[1] = In vitro metabolism in human liver microsomes and cytosols; format: in vitro ADME
human ALK2 = human ALK2 (Homo sapiens (Human), UniProt Q04771); test: LANCE Ultra ULight enzymatic assay, ALK2; format: biochemical; details: 10 μM ATP
[2] = In vitro metabolism in mouse and human liver microsomes and cytosols; format: in vitro ADME; details: for major metabolism in the presence of liver cytosol (aldehyde oxidase-mediated oxidation): 10 μM, 60 min, mouse and human; for glucuronide conjugates: with UDPGA

Chain of human ALK2 (Q04771 21-509): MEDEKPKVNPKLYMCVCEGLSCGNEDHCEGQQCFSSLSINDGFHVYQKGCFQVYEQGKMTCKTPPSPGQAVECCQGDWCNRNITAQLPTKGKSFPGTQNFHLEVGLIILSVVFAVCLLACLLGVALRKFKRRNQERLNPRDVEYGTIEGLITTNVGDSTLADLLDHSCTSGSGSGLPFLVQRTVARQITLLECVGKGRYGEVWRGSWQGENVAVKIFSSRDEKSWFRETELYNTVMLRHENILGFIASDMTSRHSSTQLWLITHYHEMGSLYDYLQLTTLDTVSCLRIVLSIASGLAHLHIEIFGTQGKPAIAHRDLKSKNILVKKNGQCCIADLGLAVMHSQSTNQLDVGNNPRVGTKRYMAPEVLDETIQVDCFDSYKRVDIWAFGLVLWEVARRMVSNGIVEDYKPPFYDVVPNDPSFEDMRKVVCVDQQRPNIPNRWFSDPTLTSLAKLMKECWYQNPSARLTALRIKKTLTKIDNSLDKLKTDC

oxidative metabolites in incubation without NADPH (AO mediated metabolism) ([1]; 10 μM, 1 hr, HLM + human cytosol): Oxidative metabolites were not observed
cyanide adduct (KCN trapping) ([1]; KCN 1 mM): A major cyanide adduct was observed
glucuronide conjugates ([1]; UDPGA 4 mM): Glucuronide conjugates were not observed
aniline metabolites ([1]; human liver microsomal preparations): An aniline derivative was observed
SMILES: Cc1cc(-c2cnn3cc(-c4ccc(N5CCNCC5)nc4)cnc23)c2ccccc2n1 [compound 12, 2-methyl-4-(6-(6-(piperazin-1-yl)pyridin-3-yl)pyrazolo[1,5-a]pyrimidin-3-yl)quinoline]

IC50 (human ALK2): 85 nM
SMILES: Cc1ccc2c(-c3cnn4cc(-c5ccc(OCCN6CCCCC6)cn5)cnc34)cccc2n1 [Compound 48′, 2-methyl-5-(6-(5-(2-(piperidin-1-yl)ethoxy)pyridin-2-yl)pyrazolo[1,5-a]pyrimidin-3-yl)quinoline]

glucuronide conjugates [2]: not observed
SMILES: C[C@@H]1CNC[C@H](C)N1c1ccc(-c2cnc3c(-c4ccnc5ccccc45)cnn3c2)cc1 [compound 2, 4-(6-(4-((2R,6S)-2,6-dimethylpiperazin-1-yl)phenyl)pyrazolo[1,5-a]pyrimidin-3-yl)quinoline]
major metabolism in the presence of liver cytosol (aldehyde oxidase-mediated oxidation) [2]: oxidation of the alpha-carbon of quinoline nitrogen, leading to M450c

GSH trapping of soft electrophiles ([2]; GSH 2 mM): not observed
cyanide adducts (reactive intermediate trapping with KCN) ([2]; KCN 0.1 mM): not observed
glucuronide conjugates [2]: not observed
SMILES: c1ccc2c(-c3cnn4cc(-c5ccc(C6CCNCC6)cc5)cnc34)ccnc2c1 [Compound 48]
major metabolism in the presence of liver cytosol (aldehyde oxidase-mediated oxidation) [2]: metabolized mainly through the oxidation of the quinoline ring

— patent US10017516B2, “BMP inhibitors and methods of use thereof” (The Brigham and Women's Hospital, Inc., priority 2013, dated 2018)
